According to ChEMBL document CHEMBL4346683 (Eur J Med Chem, 2019):
Values after ≈ are worked out from the molar mass of the structure shown. Active and inactive are the calls of the source. No cut-off for these calls is given here.

What was measured:
[1] = Inhibition of Streptococcus pyogenes FabH
[2] = Inhibition of Enterococcus faecalis FabH
Escherichia coli = experiment: Antibacterial activity against Escherichia coli ATCC 25922 assessed as inhibition of bacterial growth incubated for 24 hrs by TTC double broth dilution method; type: functional; conditions: ATCC 25922, 24 h
[3] = Cytotoxicity against human 293T cells assessed as reduction in cell viability incubated for 24 hrs by MTT assay; type: cell-based; conditions: HEK-293T cells
[4] = Induction of hemolysis in human erythrocytes assessed as hemoglobin release incubated for 3 hrs by spectrophotometric analysis; type: cell-based; conditions: erythrocyte
Staphylococcus aureus [5] = experiment: Antibacterial activity against Staphylococcus aureus ATCC 25923 assessed as inhibition of bacterial growth incubated for 24 hrs by TTC double broth dilution method; type: functional; conditions: ATCC 25923, 24 h
Bacillus subtilis = experiment: Antibacterial activity against Bacillus subtilis ATCC 530 assessed as inhibition of bacterial growth incubated for 24 hrs by TTC double broth dilution method; type: functional; conditions: ATCC 530, 24 h
Pseudomonas aeruginosa = experiment: Antibacterial activity against Pseudomonas aeruginosa ATCC 27853 assessed as inhibition of bacterial growth incubated for 24 hrs by TTC double broth dilution method; type: functional; conditions: ATCC 27853, 24 h
[6] = target: T1, 3-oxoacyl-[acyl-carrier-protein] synthase 3 (Escherichia coli, UniProt C3TDZ2); experiment: Inhibition of Escherichia coli FabH in presence of radiolabelled substrates and acetyl-coA by enzyme coupled FabD/FabH assay system
T1 sequence (C3TDZ2 whole entry): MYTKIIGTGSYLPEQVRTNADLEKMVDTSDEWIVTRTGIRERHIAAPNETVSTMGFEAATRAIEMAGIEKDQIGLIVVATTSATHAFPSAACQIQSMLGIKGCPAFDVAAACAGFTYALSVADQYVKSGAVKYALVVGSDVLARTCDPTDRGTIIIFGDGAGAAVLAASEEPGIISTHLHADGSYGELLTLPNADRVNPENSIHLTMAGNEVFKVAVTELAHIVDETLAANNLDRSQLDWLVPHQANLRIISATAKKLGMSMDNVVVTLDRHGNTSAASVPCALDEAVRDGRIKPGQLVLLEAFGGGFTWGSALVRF

[7] = system: Xanthomonas oryzae pv. oryzae; experiment: Antibacterial activity against wild type Xanthomonas oryzae pv. oryzae KACC10331 expressing FabH assessed as reduction in bacterial growth at 5 ug/ml; type: functional, organism-based
[8] = system: Xanthomonas oryzae pv. oryzae; experiment: Antibacterial activity against wild type Xanthomonas oryzae pv. oryzae KACC10331 expressing FabH assessed as reduction in bacterial growth; type: functional
Enterococcus faecium = experiment: Antibacterial activity against Enterococcus faecium; type: functional
Streptococcus pneumoniae = experiment: Antibacterial activity against Streptococcus pneumoniae; type: functional
Staphylococcus aureus [9] = experiment: Antibacterial activity against Staphylococcus aureus; type: functional

Row | Structure (SMILES) | IC50 [1] [µM] | IC50 [2] [µM] | MIC (Escherichia coli) [µg/mL] | CC50 at 24 h [3] [µM] | LC30 [4] [µg/mL] | MIC (Staphylococcus aureus [5]) [µg/mL] | MIC (Bacillus subtilis) [µg/mL] | MIC (Pseudomonas aeruginosa) [µg/mL] | IC50 [6] [µM] | inhibition [7] | MIC [8] [µg/mL] | MIC (Enterococcus faecium) [µg/mL] | MIC (Streptococcus pneumoniae) [µg/mL] | MIC (Staphylococcus aureus [9]) [µg/mL]
1 | O=C(Nc1cccc(O)c1C(=O)O)c1ccc(-c2ccccc2)c(Oc2ccccc2)c1 | 0.004 | 0.004 |  |  |  |  |  |  |  |  |  |  |  | 
2 | Cc1ccc(-c2nn(-c3ccccc3)cc2-c2nc3ccccc3n2C(=O)c2cncc(C)c2)cc1 |  |  | 62.5 (≈ 133 µM) | 155 | > 10000 | 62.5 (≈ 133 µM) | 7.8 (≈ 16.6 µM) | 62.5 (≈ 133 µM) | 9.56 |  |  |  |  | 
3 | Cc1ccc(C(=O)n2c(-c3cn(-c4ccccc4)nc3-c3ccc(C(F)(F)F)cc3)nc3ccccc32)cc1 |  |  | 62.5 (≈ 120 µM) | 169 | > 10000 | > 62.5 | 3.9 (≈ 7.46 µM) | > 62.5 | 31.8 |  |  |  |  | 
4 | Cc1cccc(C(=O)n2c(-c3cn(-c4ccccc4)nc3-c3ccc(F)cc3)nc3ccccc32)c1 |  |  | 62.5 (≈ 132 µM) | 148 | > 10000 | 62.5 (≈ 132 µM) | 31.2 (≈ 66.1 µM) | 31.2 (≈ 66.1 µM) | 34.1 |  |  |  |  | 
5 | Cc1cncc(C(=O)n2c(-c3cn(-c4ccccc4)nc3-c3ccc(F)cc3)nc3ccccc32)c1 |  |  | 62.5 (≈ 132 µM) | 119 | > 10000 | 62.5 (≈ 132 µM) | 15.6 (≈ 32.9 µM) | 62.5 (≈ 132 µM) | 22.1 |  |  |  |  | 
6 | Cc1ccc(-c2nn(-c3ccccc3)cc2-c2nc3ccccc3n2C(=O)c2ccccc2)cc1 |  |  | > 62.5 | 204 | > 10000 | > 62.5 | 31.2 (≈ 68.8 µM) | 62.5 (≈ 138 µM) | 28.2 |  |  |  |  | 
7 | O=C(c1cccnc1)n1c(-c2cn(-c3ccccc3)nc2-c2ccc(F)cc2)nc2ccccc21 |  |  | 0.98 (≈ 2.13 µM) | 216 | > 10000 | 0.98 (≈ 2.13 µM) | 0.98 (≈ 2.13 µM) | 0.49 (≈ 1.07 µM) | 1.22 | Active | 0.49 (≈ 1.07 µM) |  |  | 
8 | O=C(c1ccc(Cl)cc1)n1c(-c2cn(-c3ccccc3)nc2-c2ccc(F)cc2)nc2ccccc21 |  |  | 62.5 (≈ 127 µM) | 179 | > 10000 | > 62.5 | 62.5 (≈ 127 µM) | > 62.5 | 36.1 |  |  |  |  | 
9 | O=C(c1ccccc1)n1c(-c2cn(-c3ccccc3)nc2-c2ccc(C(F)(F)F)cc2)nc2ccccc21 |  |  | 62.5 (≈ 123 µM) | 168 | > 10000 | > 62.5 | 15.6 (≈ 30.7 µM) | 62.5 (≈ 123 µM) | 25.7 |  |  |  |  | 
10 | Cc1cncc(C(=O)n2c(-c3cn(-c4ccccc4)nc3-c3ccc(C(F)(F)F)cc3)nc3ccccc32)c1 |  |  | 62.5 (≈ 119 µM) | 123 | > 10000 | 62.5 (≈ 119 µM) | 0.98 (≈ 1.87 µM) | 62.5 (≈ 119 µM) | 22.9 | Active | 7.82 (≈ 14.9 µM) |  |  | 
11 | O=C(c1cccnc1)n1c(-c2cn(-c3ccccc3)nc2-c2ccc(C(F)(F)F)cc2)nc2ccccc21 |  |  | 62.5 (≈ 123 µM) | 158 | > 10000 | 62.5 (≈ 123 µM) | 1.95 (≈ 3.83 µM) | 62.5 (≈ 123 µM) | 15.2 |  | 15.6 (≈ 30.7 µM) |  |  | 
12 | Cc1ccc(-c2nn(-c3ccccc3)cc2-c2nc3ccccc3n2C(=O)c2cccc(C)c2)cc1 |  |  | 62.5 (≈ 133 µM) | 195 | > 10000 | > 62.5 | 31.2 (≈ 66.7 µM) | 62.5 (≈ 133 µM) | 33.2 |  |  |  |  | 
13 | Cc1ccc(-c2nn(-c3ccccc3)cc2-c2nc3ccccc3n2C(=O)c2ccncc2)cc1 |  |  | > 62.5 | 154 | > 10000 | 62.5 (≈ 137 µM) | 31.2 (≈ 68.6 µM) | 62.5 (≈ 137 µM) | 30.3 |  |  |  |  | 
14 | O=C(c1ccc(Cl)cc1)n1c(-c2cn(-c3ccccc3)nc2-c2ccc(C(F)(F)F)cc2)nc2ccccc21 |  |  | 62.5 (≈ 115 µM) | 181 | > 10000 | > 62.5 | 62.5 (≈ 115 µM) | 31.2 (≈ 57.6 µM) | 39.8 |  |  |  |  | 
15 | Cc1ccc(-c2nn(-c3ccccc3)cc2-c2nc3ccccc3n2C(=O)c2cccnc2)cc1 |  |  | 62.5 (≈ 137 µM) | 189 | > 10000 | 31.2 (≈ 68.6 µM) | 0.98 (≈ 2.15 µM) | 62.5 (≈ 137 µM) | 18.3 |  |  |  |  | 
16 | O=C(c1ccccc1)n1c(-c2cn(-c3ccccc3)nc2-c2ccc(F)cc2)nc2ccccc21 |  |  | 62.5 (≈ 136 µM) | 180 | > 10000 | > 62.5 | 7.8 (≈ 17 µM) | 62.5 (≈ 136 µM) | 22.1 |  |  |  |  | 
17 | Cc1cccc(C(=O)n2c(-c3cn(-c4ccccc4)nc3-c3ccc(C(F)(F)F)cc3)nc3ccccc32)c1 |  |  | 62.5 (≈ 120 µM) | 154 | > 10000 | > 62.5 | 31.2 (≈ 59.8 µM) | 31.2 (≈ 59.8 µM) | 34.9 |  |  |  |  | 
18 | Cc1ccc(C(=O)n2c(-c3cn(-c4ccccc4)nc3-c3ccc(C)cc3)nc3ccccc32)cc1 |  |  | 3.9 (≈ 8.32 µM) | 176 | > 10000 | > 62.5 | 0.98 (≈ 2.09 µM) | 31.2 (≈ 66.7 µM) | 3.06 |  |  |  |  | 
19 | C[C@]12C[C@@]34C=CC(=O)[C@@](C)(CCC(=O)Nc5c(O)ccc(C(=O)O)c5O)[C@@H]3[C@H](C[C@@H]1C4)O2 |  |  |  |  |  |  |  |  |  |  |  | 0.5 to 1 (≈ 1.13 to 2.27 µM) | 0.5 to 1 (≈ 1.13 to 2.27 µM) | 0.5 to 1 (≈ 1.13 to 2.27 µM)
20 | Cc1ccccc1C(=O)n1c(-c2cn(-c3ccccc3)nc2-c2ccc(C(F)(F)F)cc2)nc2ccccc21 |  |  | > 62.5 | 179 | > 10000 | > 62.5 | 62.5 (≈ 120 µM) | > 62.5 | 36.5 |  |  |  |  | 
21 | Cc1ccccc1C(=O)n1c(-c2cn(-c3ccccc3)nc2-c2ccc(F)cc2)nc2ccccc21 |  |  | > 62.5 | 189 | > 10000 | > 62.5 | 62.5 (≈ 132 µM) | > 62.5 | 37.2 |  |  |  |  | 
22 | O=C(c1ccncc1)n1c(-c2cn(-c3ccccc3)nc2-c2ccc(C(F)(F)F)cc2)nc2ccccc21 |  |  | > 62.5 | 135 | > 10000 | 62.5 (≈ 123 µM) | 7.8 (≈ 15.3 µM) | 62.5 (≈ 123 µM) | 32.7 |  |  |  |  | 
23 | Cc1ccc(-c2nn(-c3ccccc3)cc2-c2nc3ccccc3n2C(=O)c2ccc(C)nc2)cc1 |  |  | 62.5 (≈ 133 µM) | 145 | > 10000 | 62.5 (≈ 133 µM) | 0.98 (≈ 2.09 µM) | 62.5 (≈ 133 µM) | 16.9 |  | 15.6 (≈ 33.3 µM) |  |  | 
24 | NC[C@H]1O[C@H](O[C@H]2[C@H](O)[C@@H](O[C@H]3O[C@H](CO)[C@@H](O)[C@H](N)[C@H]3O)[C@H](N)C[C@@H]2N)[C@H](N)[C@@H](O)[C@@H]1O [BEKANAMYCIN] |  |  | 1.95 (≈ 4.03 µM) |  |  | 0.98 (≈ 2.03 µM) | 0.98 (≈ 2.03 µM) | 3.9 (≈ 8.07 µM) |  |  |  |  |  | 
25 | Cc1ccc(C(=O)n2c(-c3cn(-c4ccccc4)nc3-c3ccc(F)cc3)nc3ccccc32)cc1 |  |  | 62.5 (≈ 132 µM) | 178 | > 10000 | > 62.5 | 0.98 (≈ 2.07 µM) | > 62.5 | 30.3 |  |  |  |  | 
26 | Cc1ccc(C(=O)n2c(-c3cn(-c4ccccc4)nc3-c3ccc(C(F)(F)F)cc3)nc3ccccc32)cn1 |  |  | 1.95 (≈ 3.72 µM) | 153 | > 10000 | 62.5 (≈ 119 µM) | 0.49 (≈ 0.936 µM) | 62.5 (≈ 119 µM) | 2.05 |  |  |  |  | 
27 | Cc1ccc(C(=O)n2c(-c3cn(-c4ccccc4)nc3-c3ccc(F)cc3)nc3ccccc32)cn1 |  |  | 1.95 (≈ 4.12 µM) | 137 | > 10000 | 62.5 (≈ 132 µM) | 0.98 (≈ 2.07 µM) | 62.5 (≈ 132 µM) | 4.02 |  | 15.6 (≈ 33 µM) |  |  | 
28 | Cc1ccc(-c2nn(-c3ccccc3)cc2-c2nc3ccccc3n2C(=O)c2ccccc2C)cc1 |  |  | 62.5 (≈ 133 µM) | 176 | > 10000 | > 62.5 | 62.5 (≈ 133 µM) | > 62.5 | 35.4 |  |  |  |  | 
29 | O=C(c1ccncc1)n1c(-c2cn(-c3ccccc3)nc2-c2ccc(F)cc2)nc2ccccc21 |  |  | > 62.5 | 151 | > 10000 | 62.5 (≈ 136 µM) | 31.2 (≈ 68 µM) | 62.5 (≈ 136 µM) | 33.9 |  |  |  |  | 
30 | Cc1ccc(-c2nn(-c3ccccc3)cc2-c2nc3ccccc3n2C(=O)c2ccc(Cl)cc2)cc1 |  |  | 62.5 (≈ 128 µM) | 216 | > 10000 | > 62.5 | 62.5 (≈ 128 µM) | > 62.5 | 38.2 |  |  |  |  | 
